Test results: paper PMC8875489, “Pharmaceutical and Safety Profile Evaluation of Novel Selenocompounds with Noteworthy Anticancer Activity” (Pharmaceutics, 2022)
Where two headings read alike, the source gives them in different places.

What was measured:
[1] = design: method as in PMID 28245633; conditions: known selenocompounds; cited from earlier work
[2] = Experimental aqueous solubility (UV spectrophotometry of saturated solutions); type: physicochemical; conditions: water (saturated solution), water, thermodynamic from solid
Method: Experimental aqueous solubility was determined following a previously described procedure. Briefly, calibration curves were obtained by means of UV spectrometry for each compound, and their respective linear equations were obtained. Afterwards, saturated solutions of each compound were obtained, and they were diluted until the concentration fell within the calibration range, thus enabling the correct concentration interpolation. […] A detailed description of this process can be found in Supplementary Materials.
The aqueous solubility of the tested organic Se compounds was experimentally determined following a previously described procedure. The chosen assay used UV spectrophotometry to estimate the concentration of the saturated solution with known dilutions of the tested compound at room temperature (20° C) after 24 h. The concentrations of the solutions were used to obtain the interpolation of the measured UV absorbance of the saturated solution dilution from the calibration curve drawn using solutions previously prepared in methanol/water mixtures. […]
1.2. Determination of the aqueous solubility
1.2.1. Preparation of the saturated solutions of tested compounds
The saturated solutions (2 mL) of the tested Se-compounds in water were prepared at H2O boiling point in small glass vials. Later, vials were covered to avoid evaporation and all solutions were left 1 day at 20° C, after when every solution was filtered. Finally, the concentration of the Se-compounds was determined through UV spectrophotometric measurements. To estimate correctly the concentration, calibration curves with known concentrations were prepared, and the saturated solutions were diluted till reaching a point within the range of the respective calibration curve.
1.2.2. Preparation of the calibration curve stock solutions for UV spectrometry The stock solutions of 10 selenoesters (EDA-26, EDA-71, EDA-73, EDA-74, EDA-93, […]
were prepared in methanol (99% purity) at a 1 g/L concentration. Additionally, calibration solutions in the range from 0.0005 to 0.02 [g/L] were prepared for each Se-compound and their UV absorbance was determined to draw the corresponding calibration curve.
1.2.3. Sample preparation of saturated filtrates for UV spectrometry
The 100-fold diluted solutions of the saturated filtrates of the Se-compounds were prepared in the anhydrous methanol (99% purity), by addition of 70 μL of the correspond-ing methanol stock solution over anhydrous methanol till filling a 7 mL final volume. Af-terwards, the absorption of abovementioned solutions was determined. Finally, the solu-tions were diluted with 99% methanol from 1 to 160 times, in function of the compound.
The aim of this procedure was to determine the concentration of the Se-compounds […]
through the controlled dilution of the solution with unknown concentration till its UV absorbance fell within the range of the calibration solutions.
1.2.4. Solubility estimation
For each compound, the calibration curve was calculated through the UV absorbance measurements and the linear equation of the linear part of the curve was calculated. The absorbance of the dilution was then interpolated in this range, finding its concentration.
To determine the solubility, this concentration was multiplied by the dilution factor, which was specific for each derivative. This action enabled the estimation of the in vitro solubility of the tested derivatives in saturated solutions. All the solubility values were the average value obtained from the 3 independent measurements.
(§1) 1.3. PAMPA test: membrane permeability evaluation.
(§2) The passive transport and the membrane absorption of 5 selected selenocompounds (EDA-58, EDA-71, EDA-119, EDA-122, EDA-A6) were evaluated in the in vitro Parallel Artificial Membrane Permeability Assay (PAMPA). The protocol of the permeability assay was similar to the ones previously described.
1.3.1. Stock solutions and sample preparation for PAMPA test […]

[3] = test system: Salmonella Typhimurium TA100 strain; conditions: for Fold Increase over Baseline / MI (mutagenic index) / B (binomial B value): TA100; for Fold Increase over Baseline: alert ≥ 2.0; for MI (mutagenic index): mutagenic if MI ≥ 2; for B (binomial B value): threshold ≥ 0.99
Method: Safety profiles were evaluated using an in vitro microbiological method adapted to the microplate Ames test (384-well microtitration plate), which applies Salmonella enterica serovar Typhimurium bacterial strains (the gold standard in mutagenicity research). The experiment was performed according to a previously described protocol, which is provided in the Supplementary Materials. Briefly, the TA 100 strain (deprived of the ability to synthesize the histidine) was incubated with each tested compound in an exposure medium containing a limited amount of histidine. The reversion events were counted both manually and by means of a microplate reader. Each fold increase bigger than two times the baseline level (≥2.0-fold) was considered to indicate a mutagen alert. The experiments and data analyses were prepared according to the procedure that was previously described by Flückiger-Isler et al.. The assay was performed in triplicate. The positive control selected for the mutagenicity assays was NQNO, which causes genome point mutations; specifically, it promotes G:C → A:T transitions in the Salmonella Typhimurium TA-100 strain and other bacteria such as Vibrio harveyi and Escherichia coli.
In the next step of the studies, the in vitro safety profiles of the tested selenocompounds were evaluated. All compounds were tested with the 384-well plate microfluctuation Ames test. The mutagenic index (MI) was used as the measure of mutagenicity.
1.5. Safety profile evaluation - Ames microplate mutagenicity assay
Safety profile was evaluated by the means of in vitro microbiological methods – adapted to microplate Ames test, which applies Salmonella enterica serovar Typhimurium bacterial strains (the gold standard in mutagenicity research).
1.5.1. Compounds preparation
To evaluate the impact of tested compounds and of references on Salmonella enterica serovar Typhimurium (onwards Salmonella Typhimurium) TA-100 strain growth by means of the Ames test, the compounds or the reference were dissolved in the pure DMSO, to obtain the corresponding 10 mM stock solutions. Working solutions for tested compounds (25 μM and 250 μM concentrations) were prepared before the assay in DMSO.
1.5.2. Microplate Ames mutagenicity assay protocol
Prior to the experiment, Salmonella Typhimurium was cultured overnight (NB-2 liq-uid medium in the presence of 25 μg/mL ampicillin). At the day of the experiment, fresh dilutions of the tested compounds (25 μM and 250 μM), reference compound (methylse-leninic acid) and standard mutagen (4-nitroquinoline-N-oxide at 2.5 μM and 12.5 μM) in DMSO were prepared. The positive control selected for the mutagenicity assays was NQNO, which causes point mutations at the genome. Specifically, it promotes G:C → A:T transitions in Salmonella Typhimurium TA-100 strain and in the other bacteria such as Vib-rio harveyi and Escherichia coli.
The mutagenic potential of the tested derivatives was evaluated by the incubation of the abovementioned bacteria (deprived of the ability to synthesize the histidine) with spe-cific concentrations of the tested compounds (for 90 min in the exposure medium), con-taining a limited amount of histidine (enough to provide approximately 2-3 cell divisions).
The occurrence of reversion events to histidine prototrophy was observed through the bacterial growth in the indicator medium without histidine after 48 h of incubation in temperature of 37° C [45]. The final compound and the mutagenic agent concentrations in each single well of a 384 well plate were 1 μM and 10 μM for the compounds; and 0.1 μM and 0.5 μM for the mutagen. Lastly, both a manual count and a microplate reader were used to obtain the results. The medium control baseline (MCB) was estimated as the mean number of revertants in the medium control plus one standard deviation. Each fold in-crease bigger than two times the baseline level ≥ 2.0 was considered as a mutagen alert.

[4] = PAMPA membrane permeability test (capillary electrophoresis); type: in vitro ADME; conditions: for Papp at 5 h, 50 µM: 50 μM in PBS pH 7.4, 5 h, room temperature, read-out: In Vitro Permeability
Method: The passive transport and membrane absorption of 5 selected selenocompounds (EDA-58, EDA-71, EDA-119, EDA-122, and EDA-A6) were evaluated with the in vitro parallel artificial membrane permeability assay (PAMPA). This PAMPA assay could provide better predictability and membrane permeability correlations compared to the data obtained for human absorption in the Caco-2 cell line. The Precoated PAMPA Plate System Gentest™ (Corning, Bradford, MA, USA) was used to perform the permeability assay for the 5 selected Se compounds. The protocol of the permeability assay was similar to the previously described ones and is detailed in the Supplementary Materials.
Five selenocompounds (EDA-58, EDA-71, EDA-119, EDA-122, and EDA-A6) were evaluated with the PAMPA in vitro assay using the CE technique.
[formula] Scheme 1 Calculation of the in vitro permeability (cm/s). A (filter area) cm^2 = 0.3; VD (donor well volume) mL = 0.3; VA (acceptor well volume) mL = 0.2; t (incubation time) seconds = 18,000; CA(t) (compound concentration in acceptor well at time t); CD(t) (compound concentration in donor well at time t). […]
as §1, §2
1.3.1. Stock solutions and sample preparation for PAMPA test
Working solutions of the tested compounds at the concentration of the 50 μM in the phosphate saline buffer (PBS, pH 7.4) were prepared from the stocks in the pure dimethyl sulfoxide (DMSO) and stored at -20° C. Moreover, to draw the precise calibration curves for each tested (EDA-58, EDA-71, EDA-119, EDA-122, EDA-A6) and reference com- […]
The Precoated PAMPA Plate System Gentest™ (Corning, Bradford, MA, USA) was used to perform permeability assay for the 5 selected Se-compounds. The essential part of […]
solvents. PAMPA Plate System was brought to room temperature 30 min before use.
The 96-well filter plate precoated with lipids was used as a permeation acceptor, whereas the 96-well receiver plate acted as the permeation donor plate. Therefore, the compound solutions were added to the wells (300 μL/well) of the receiver plate and PBS was added to wells (200 μL/well) of the precoated filter plate.
Then, the filter plate was coupled with the receiver plate and both were incubated at room temperature for five hours without agitation. […] Fi-nally, the permeability coefficients (Pe, [cm/s]) of the tested compounds were estimated using the formula provided by the PAMPA Plate System manufacturer.
1.3.3. Capillary electrophoresis (CE) analytical method […]
were calculated in both the donor and acceptor compartments using the capillary electro-

SMILES	permeability [1]	Fold Increase over Baseline ([3]; 1 µM)	MI (mutagenic index) ([3]; 1 µM)	B (binomial B value) ([3]; 1 µM)	Fold Increase over Baseline ([3]; 10 µM)	MI (mutagenic index) ([3]; 10 µM)	B (binomial B value) ([3]; 10 µM)	also measured
C[Se]C[C@H](N)C(=O)O [methylselenocysteine]	17.2%	–	–	–	–	–	–	–
C[Se]C1O[C@H](CO)[C@H](O)[C@H](O)[C@H]1NC(C)=O (some centres unmarked) [Se-methylseleno-N-acetylgalactosamine]	2.9%	–	–	–	–	–	–	–
NC(=O)C[Se]C(=O)c1ccccc1 [EDA-117, Se-carbamoylmethyl benzoselenoate]	–	0.49	0.66	0.36	0.42	0.57	0.18	solubility at 24 h ([2]; 20 °C, logSm calculated based on solubility Sm (mol/L), read-out: Experimental Aqueous Solubility logSm (converted)): 4.27 mM; solubility at 24 h ([2]; room temperature (20° C), after 24 h, average of 3, read-out: Experimental Aqueous Solubility): 1030 µg/mL
C[Se]CC[C@H](N)C(=O)O [selenomethionine]	12.4%	–	–	–	–	–	–	–
N#C[SeH] [anionic selenocyanate, selenocyanate]	3.8%	–	–	–	–	–	–	–
CCn1cc(C(=O)O)c(=O)c2cc(F)c(N3CCNCC3)cc21 [Norfloxacin, norfloxacin, reference compound]	–	–	–	–	–	–	–	Papp at 5 h, 50 µM [4]: 0.0949 ×10⁻⁶ cm/s
COC(=O)C[Se]C(=O)Cc1ccccc1 [EDA-56, methyl 2-((2-phenylacetyl)selanyl)acetate]	–	0.93	1.46	0.88	0.90	0.85	0.75	–
O=[Se](O)O [selenite]	3.4%	–	–	–	–	–	–	–
COC(=O)C[Se]C(=O)c1ccccc1 [EDA-53, methyl 2-(benzoylselanyl)acetate]	–	1.10	1.82	1.00	1.04	1.72	0.98	mutagenicity conclusion in Ames test ([3]; TA100, 1 and 10 µM): non-mutagenic
C[Se](=O)O [MetSeAc, methylseleninic acid, reference compound]	–	0.75	0.90	0.37	0.74	0.96	0.47	–
Cn1c(=O)c2c(ncn2C)n(C)c1=O [Caffeine, caffeine, reference compound]	–	–	–	–	–	–	–	Papp at 5 h, 50 µM [4]: 3.42 ×10⁻⁶ cm/s; % Perm. (percentage that crossed from the donor well to the acceptor well) ([4]; 5 h): 6.05%
N[C@@H](C[Se][Se]C[C@H](N)C(=O)O)C(=O)O [selenocystine]	3.1%	–	–	–	–	–	–	–
COc1cccc2c1C(=O)c1c(O)c3c(c(O)c1C2=O)C[C@@](O)(C(=O)CO)C[C@@H]3O[C@H]1C[C@H](N)[C@H](O)[C@H](C)O1 [DOXO, doxorubicin, reference compound]	–	1.31	1.64	1.00	0.77	0.95	0.46	–
C[Se+](C)C [cationic trimethylselenonium, trimethylselenonium]	3.0%	–	–	–	–	–	–	–
COC(=O)C[Se]C(=O)c1ccccc1Cl [EDA-46, methyl 2-((2-chlorobenzoyl)selanyl)acetate]	–	1.65	1.56	1.00	1.00	0.94	0.88	–
N[C@@H](CC[Se]CC[C@H](N)C(=O)O)C(=O)O [L-selenohomolanthionine]	2.5%	–	–	–	–	–	–	–
